In assay [1] the test system is A549. The assay can be described thus: Antiproliferative activity against human A549 cells overexpressing LSD1 assessed as reduction in cell viability measured after 72 hrs by MTT assay. To be noted: A549, 72 h. For orientation: Formazan colour is commonly taken as a measure of viable cells.
Assay [2] has as its system U-87 MG. As to the kind of experiment: Antiproliferative activity against human U87MG cells assessed as reduction in cell viability measured after 72 hrs by MTT assay.
In assay [3] the target is T1, Amine oxidase [flavin-containing] A (Homo sapiens, UniProt P21397).
T1 sequence (P21397 whole entry): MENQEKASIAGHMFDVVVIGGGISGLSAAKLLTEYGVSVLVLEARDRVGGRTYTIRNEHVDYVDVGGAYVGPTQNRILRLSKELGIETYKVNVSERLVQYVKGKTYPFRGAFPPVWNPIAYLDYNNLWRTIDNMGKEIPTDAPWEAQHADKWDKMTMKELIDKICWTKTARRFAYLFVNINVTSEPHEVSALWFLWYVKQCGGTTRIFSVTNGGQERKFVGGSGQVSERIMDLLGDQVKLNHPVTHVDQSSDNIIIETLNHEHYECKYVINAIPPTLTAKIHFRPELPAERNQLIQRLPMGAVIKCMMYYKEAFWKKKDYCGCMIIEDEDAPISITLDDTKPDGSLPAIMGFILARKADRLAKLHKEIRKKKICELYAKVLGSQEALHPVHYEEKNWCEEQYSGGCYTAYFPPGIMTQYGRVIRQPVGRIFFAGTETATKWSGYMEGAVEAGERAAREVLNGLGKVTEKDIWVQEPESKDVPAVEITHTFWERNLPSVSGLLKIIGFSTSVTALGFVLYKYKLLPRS
As to the kind of experiment: Inhibition of human recombinant MAO-A expressed in baculovirus infected BTI cells using luciferin derived luminogenic substrate measured after 20 mins by luminescence assay.

In assay [4] the target is T2, Amine oxidase [flavin-containing] B (Homo sapiens, UniProt P27338).
T2 sequence (P27338 whole entry): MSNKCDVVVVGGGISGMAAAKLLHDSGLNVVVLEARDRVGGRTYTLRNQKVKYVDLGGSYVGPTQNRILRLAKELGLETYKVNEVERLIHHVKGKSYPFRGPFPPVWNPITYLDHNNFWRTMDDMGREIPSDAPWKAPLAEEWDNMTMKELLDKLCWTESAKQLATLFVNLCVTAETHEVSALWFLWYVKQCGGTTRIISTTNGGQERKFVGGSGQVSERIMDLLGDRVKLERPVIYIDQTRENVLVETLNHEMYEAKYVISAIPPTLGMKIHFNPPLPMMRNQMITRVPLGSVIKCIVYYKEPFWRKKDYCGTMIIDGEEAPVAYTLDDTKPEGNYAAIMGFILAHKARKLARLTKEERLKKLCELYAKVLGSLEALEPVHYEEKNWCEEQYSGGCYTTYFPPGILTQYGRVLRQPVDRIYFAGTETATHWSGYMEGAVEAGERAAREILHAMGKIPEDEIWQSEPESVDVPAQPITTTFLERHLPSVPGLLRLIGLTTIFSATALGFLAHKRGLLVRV
The assay can be described thus: Inhibition of human recombinant MAO-B expressed in baculovirus infected BTI cells using luciferin derived luminogenic substrate measured after 20 mins by luminescence assay.

Assay [5] concerns the target Lysine-specific histone demethylase 1A (Homo sapiens, UniProt O60341). As to the kind of experiment: Inhibition of human recombinant LSD1 using fluorogenic ADHP as substrate preincubated for 30 mins followed by substrate addition measured after 10 mins by fluorescence assay.

Where only a bound is given, the exact number is not on record here.

As a reminder, the IC50 is the concentration that inhibits the measured activity by half.

Consider `COc1cc(/C=C/C(=O)Nc2ccccc2COc2ccc(OC3CCNCC3)cc2)ccc1O`, for which the IC50 was 4.42 µM in assay [1], 14.2 µM in assay [2], greater than 50 µM in assay [3] and greater than 50 µM in assay [4]. As to `O=C(/C=C/c1cccc(C(F)(F)F)c1)Nc1cccc(OCC2CCNCC2)c1`, the IC50 in assay [5] is greater than 50 µM.

`COC(=O)Cc1ccc(NC(=O)/C=C/c2ccc(OC(C)=O)c(OC)c2)cc1`: the IC50 in assay [5] was greater than 50 µM. On to `COc1cc(/C=C/C(=O)Nc2ccc(N)cc2)ccc1O`, for which the IC50 in assay [1] and in assay [2] was greater than 50 µM throughout. Consider `COc1cc(/C=C/C(=O)Nc2cccc(COc3ccc(OC4CCNCC4)cc3)c2)ccc1O`, for which the figures for the IC50 in assay [1] and in assay [2] were 28.5 µM and greater than 50 µM, respectively.

For the molecule `Cc1ccc(-c2cc(/C=C/C(=O)Nc3cccc(OCC4CCNCC4)c3)ccc2O)cc1`, in assay [5], the IC50 is greater than 50 µM. As to `COc1cc(/C=C/C(=O)Nc2ccc(CC(=O)NN)cc2)ccc1O`, the IC50 in assay [1] amounted to 30.3 µM; in assay [2] it was 49.3 µM. The matching figures for `COc1cc(/C=C/C(=O)Nc2ccc(C(=O)NO)cc2)ccc1O`: 32.5 µM and greater than 50 µM. With `COc1ccc(/C=C/C(=O)Nc2cccc(OCC3CCNCC3)c2)cc1OC`, the IC50 in assay [5] was greater than 50 µM. The same measure, in the same setting: the value for `COc1cc(/C=C/C(=O)CC(=O)/C=C/c2ccc(O)c(OC)c2)ccc1O` [CURCUMIN] was 9.6 µM.

Consider `COc1cc(/C=C/C(=O)Nc2cccc(OCC3CCNCC3)c2)ccc1O`, for which the IC50 in assay [1] amounted to 24.5 µM; in assay [2], 31 µM. In the case of `N#Cc1ccc(/C=C/C(=O)Nc2cccc(OCC3CCNCC3)c2)cc1`, the IC50 in assay [5] was greater than 50 µM. Same read-out and setting: the value for `COc1cc(/C=C/C(=O)Nc2cccc(OCC3CCNCC3)c2)cc(OC)c1OC` was greater than 50 µM. With `COc1cc(/C=C/C(=O)Nc2ccc(NC(=N)N)cc2)ccc1O`, the IC50 in assay [1] and in assay [2] was greater than 50 µM in each case. Consider `O=C(/C=C/c1ccc(F)cc1)Nc1cccc(OCC2CCNCC2)c1`, for which, in assay [5], the IC50 was greater than 50 µM. As to `O=C(/C=C/c1ccc(O)cc1)Nc1cccc(OCC2CCNCC2)c1`, the IC50 in assay [1] is 9.33 µM; in assay [2] it was greater than 50 µM; in assay [3], greater than 50 µM; in assay [4] it was greater than 50 µM.
